The assay deals with T1, Microsomal triglyceride transfer protein (MTP) from human small intestine microsome (Homo sapiens, UniProt P55157).
T1 construct: Human small intestine microsome was dialyzed against 10 mM phosphate buffer; tissue Tissue Transforming Technologies, Inc; host or cells: human small intestine microsome
T1 sequence (P55157 19-894): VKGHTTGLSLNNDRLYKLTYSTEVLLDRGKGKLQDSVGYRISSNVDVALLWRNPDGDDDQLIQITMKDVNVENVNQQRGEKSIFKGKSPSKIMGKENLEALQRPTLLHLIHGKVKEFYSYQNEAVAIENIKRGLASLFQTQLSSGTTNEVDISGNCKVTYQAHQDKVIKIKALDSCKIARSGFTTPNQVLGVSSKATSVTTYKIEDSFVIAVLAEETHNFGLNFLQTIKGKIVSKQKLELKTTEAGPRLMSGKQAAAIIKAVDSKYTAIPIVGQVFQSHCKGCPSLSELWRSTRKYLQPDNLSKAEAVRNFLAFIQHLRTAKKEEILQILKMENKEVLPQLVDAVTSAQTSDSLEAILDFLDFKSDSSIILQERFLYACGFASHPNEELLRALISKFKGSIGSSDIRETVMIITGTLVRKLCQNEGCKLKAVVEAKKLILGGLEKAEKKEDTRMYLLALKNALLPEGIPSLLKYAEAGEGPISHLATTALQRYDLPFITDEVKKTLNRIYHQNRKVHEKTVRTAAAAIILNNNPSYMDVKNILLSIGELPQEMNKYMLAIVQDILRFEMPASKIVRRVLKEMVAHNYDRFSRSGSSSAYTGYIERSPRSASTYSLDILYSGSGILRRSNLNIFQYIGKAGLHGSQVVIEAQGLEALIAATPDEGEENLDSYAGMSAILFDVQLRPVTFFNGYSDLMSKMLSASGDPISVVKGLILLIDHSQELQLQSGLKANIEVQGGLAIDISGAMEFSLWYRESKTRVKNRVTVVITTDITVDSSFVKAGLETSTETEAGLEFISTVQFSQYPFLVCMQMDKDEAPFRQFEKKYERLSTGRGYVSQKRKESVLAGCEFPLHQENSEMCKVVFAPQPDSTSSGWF
T1 sequence (P07237 18-508 partner): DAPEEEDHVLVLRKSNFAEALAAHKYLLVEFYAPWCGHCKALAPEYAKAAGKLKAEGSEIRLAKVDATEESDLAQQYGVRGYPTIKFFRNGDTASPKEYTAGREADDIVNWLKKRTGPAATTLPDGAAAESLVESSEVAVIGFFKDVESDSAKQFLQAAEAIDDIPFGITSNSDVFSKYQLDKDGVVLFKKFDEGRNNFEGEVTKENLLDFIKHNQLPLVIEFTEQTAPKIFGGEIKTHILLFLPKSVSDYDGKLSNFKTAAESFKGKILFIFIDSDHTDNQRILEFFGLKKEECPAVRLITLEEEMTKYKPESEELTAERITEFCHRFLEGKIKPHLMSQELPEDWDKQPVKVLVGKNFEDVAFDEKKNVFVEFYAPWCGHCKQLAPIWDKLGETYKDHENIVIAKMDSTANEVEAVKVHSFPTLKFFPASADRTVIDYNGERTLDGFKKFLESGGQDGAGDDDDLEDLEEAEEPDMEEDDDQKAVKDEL
Nature of the assay: Inhibition test of interliposomal triglyceride (TG) transfer activity by MTP. The class given is biochemical. The following applies: purified MTP from human small intestine microsome, 37° C., 1.5 hours. The procedure:
Microsomal triglyceride transfer protein (MTP) from human small intestine microsome (manufactured by Tissue Transforming Technologies, Inc.) was purified in such a way described below. Human small intestine microsome was dialyzed against 10 mM phosphate buffer (300 mL, pH 6.8) twice for about 2 hours and once for further not less than 12 hours, at about 4° C. After dialysis, the mixture was centrifuged at 4° C. and 15,000×g for 5 minutes and then the supernatant was recovered. The previously recovered supernatant was purified by column chromatography on diethylaminoethyl (DEAE) Sepharose using FPLC (Fast Performance Liquid Chromatography) system, and the purified MTP was used for the test as described below.
Small unilamellar-vesicle (SUV) liposome (hereinafter described as donor, containing 0.25% (mol/mol) triolein and 5% (mol/mol) cardiolipin) constituted by triolein labeled with ^14C and non-labeled SUV liposome (hereinafter described as acceptor, containing […] triolein) were prepared in such a way described below.
Firstly, in order to prepare the donor, there were volatilized under a stream of nitrogen gas a phosphatidylcholine solution containing phosphatidylcholine labeled with ^3H, a cardiolipin solution, and a triolein solution containing triolein labeled with ^14C (each solution had been already dissolved in an appropriate organic solvent), or in order to prepare the acceptor, there were volatilized under nitrogen flow a phosphatidylcholine solution containing phosphatidylcholine labeled with ^3H and a cardiolipin solution (each solution had been already dissolved in an appropriate organic solvent). An appropriate amount of a reaction buffer (15 mM Tris-HCl buffer containing 1 mM EDTA.Na2, 40 mM NaCl, and 0.5% (w/v) bovine serum albumin, pH 7.4) was added thereto to be emulsified. The emulsions were treated with ultrasonication under ice-cooling and centrifuged at 4° C. and 159,000×g for 2 hours. Each of the resulting supernatant was used for donor or acceptor.
Each radioactivity in the acceptor and the donor was measured by liquid scintillation counter, and a mixed solution of the acceptor and the donor was prepared with a reaction buffer so as to be a donor-derived radioactivity of 16,000 dpm/400 μL and a acceptor-derived radioactivity of 4,000 dpm/[…]. 400 μL of the mixed solution of the donor and the acceptor, 45 μL of the reaction buffer, 50 μL of MTP (20 μg/mL), and 5 μL of a sample dissolved in DMSO (dimethyl sulfoxide) or 5 μL of DMSO was mixed (total amount: 500 μL). The mixture was incubated at 37° C. for 1.5 hours. After completion of the incubation, 1.25 mL of a suspension of DEAE cellulose (66.7% (v/v)) in 15 mM Tris-HCl buffer (pH 7.4) containing 1 mM EDTA.Na2 was added to the above solution. The mixture was centrifuged to separate the donor (adsorbed on the DEAE cellulose to precipitate) and the acceptor (the supernatant). The radioactivity in the acceptor was measured by liquid scintillation counter. The value obtained by subtracting the radioactivity in a blank group from the radioactivity in the acceptor of a DMSO group was determined as MTP-mediated TG transfer activity, and it was compared with the value obtained by subtracting the radioactivity in the blank group from the radioactivity in a sample group. Here, the blank was prepared by adding 10 mM phosphate buffer (pH 6.8) containing 250 mM NaCl in place of MTP. Inhibition rate (%) was calculated from values obtained according to the following equation. Inhibition rate(%)=(1 minus((radioactivity of sample group minus radioactivity of blank group)/(radioactivity of DMSO group minus radioactivity of blank group)))×100.
50% Inhibition rate (IC50) was determined on the basis of the above equation.
Turning to “3-chloro-4-[4-(3-dimethylcarbamoyl-4-{[6-methyl-2-(4-trifluoromethylphenyl)pyridine-3-carbonyl]amino}phenyl)butyryloxy]-5-methoxybenzoic acid methyl ester sulfonate [Compound 1-56]”, the IC50 (usually the midpoint of a concentration-inhibition curve) is less than 10 nM. `CN(C)C(=O)c1cc(CCC(=O)Oc2ccccc2)ccc1NC(=O)c1ccccc1-c1ccc(C(F)(F)F)cc1` [Compound 1-1, 3-{3-dimethylcarbamoyl-4-[(4′-trifluoromethylbiphenyl-2-carbonyl)amino]phenyl}propionic acid phenyl ester] gave an IC50 of 10 to 100 nM. `Cc1noc(-c2ccc(OC(=O)CCCc3ccc(NC(=O)c4ccccc4-c4ccc(C(F)(F)F)cc4)c(C(=O)N(C)C)c3)cc2)n1` [Compound 1-2, 4-{3-dimethylcarbamoyl-4-[(4′-trifluoromethylbiphenyl-2-carbonyl)amino]phenyl}butyric acid 4-(3-methyl-[1,2,4]oxadiazol-5-yl)phenyl ester] registered an IC50 of less than 10 nM. On to `CN(C)C(=O)c1cc(CC(=O)Oc2ccccc2)ccc1NC(=O)c1ccccc1-c1ccc(C(F)(F)F)cc1` [Compound 1-3, {3-dimethylcarbamoyl-4-[(4′-trifluoromethylbiphenyl-2-carbonyl)amino]phenyl}acetic acid phenyl ester], for which the IC50 was 100 to 1000 nM. To `CN(C)C(=O)c1cc(CC(=O)Oc2ccc(F)cc2)ccc1NC(=O)c1ccccc1-c1ccc(C(F)(F)F)cc1` [Compound 1-4, {3-dimethylcarbamoyl-4-[(4′-trifluoromethylbiphenyl-2-carbonyl)amino]phenyl}acetic acid 4-fluorophenyl ester] belongs 100 to 1000 nM. To `COC(=O)c1ccc(OC(=O)CCCc2ccc(NC(=O)c3ccccc3-c3ccc(C(F)(F)F)cc3)c(C(=O)N(C)C)c2)cc1` [Compound 1-5] belongs less than 10 nM; to `CCOC(=O)c1ccc(OC(=O)CCCc2ccc(NC(=O)c3ccccc3-c3ccc(C(F)(F)F)cc3)c(C(=O)N(C)C)c2)cc1` [Compound 1-6, 4-(4-{3-dimethylcarbamoyl-4-[(4′-trifluoromethylbiphenyl-2-carbonyl)amino]phenyl}butyryloxy)benzoic acid ethyl ester], less than 10 nM; to `CC(C)OC(=O)c1ccc(OC(=O)CCCc2ccc(NC(=O)c3ccccc3-c3ccc(C(F)(F)F)cc3)c(C(=O)N(C)C)c2)cc1` [Compound 1-7, 4-(4-{3-dimethylcarbamoyl-4-[(4′-trifluoromethylbiphenyl-2-carbonyl)amino]phenyl}butyryloxy)benzoic acid isopropyl ester], less than 10 nM. To `CCCOC(=O)c1ccc(OC(=O)CCCc2ccc(NC(=O)c3ccccc3-c3ccc(C(F)(F)F)cc3)c(C(=O)N(C)C)c2)cc1` [Compound 1-8, 4-(4-{3-dimethylcarbamoyl-4-[(4′-trifluoromethylbiphenyl-2-carbonyl)amino]phenyl}butyryloxy) benzoic acid propyl ester] belongs less than 10 nM. In turn, `COC(=O)c1ccc(OC(=O)CCCc2ccc(NC(=O)c3ccc(C)cc3-c3ccc(C(F)(F)F)cc3)c(C(=O)N(C)C)c2)cc1` [Compound 1-9, 4-(4-{3-dimethylcarbamoyl-4-[(5-methyl-4′-trifluoromethylbiphenyl-2-carbonyl)amino]phenyl}butyryloxy) benzoic acid methyl ester] displayed an IC50 of less than 10 nM. On to `COC(=O)c1ccc(OC(=O)CCCc2ccc(NC(=O)c3ccccc3-c3ccc(C(F)(F)F)cc3)c(C(=O)N(C)C)c2)c(F)c1` [Compound 1-10, 4-(4-{3-dimethylcarbamoyl-4-[(4′-trifluoromethylbiphenyl-2-carbonyl)amino]phenyl}butyryloxy)-3-fluoro benzoic acid methyl ester], for which the IC50 is less than 10 nM.

`COC(=O)c1ccc(OC(=O)CCCc2ccc(NC(=O)c3ccccc3-c3ccc(C(F)(F)F)cc3)c(C(=O)N(C)C)c2)c(Cl)c1` [Compound 1-11, 3-chloro-4-(4-{3-dimethylcarbamoyl-4-[(4′-trifluoromethylbiphenyl-2-carbonyl)amino]phenyl}butyryloxy)benzoic acid methyl ester] registered a half-maximal inhibitory concentration (IC50) of less than 10 nM. For `COC(=O)c1ccc(OC(=O)CCCc2ccc(NC(=O)c3ccccc3-c3ccc(C(F)(F)F)cc3)c(C(=O)N(C)C)c2)c(OC)c1` [Compound 1-12, 4-(4-{3-dimethylcarbamoyl-4-[(4′-trifluoromethylbiphenyl-2-carbonyl)amino]phenyl}butyryloxy)-3-methoxybenzoic acid methyl ester], the IC50 is less than 10 nM. In turn, `COC(=O)c1ccc(OC(=O)CCCc2ccc(NC(=O)c3ccc(C)nc3-c3ccc(C(F)(F)F)cc3)c(C(=O)N(C)C)c2)cc1` [Compound 1-13, 4-[4-(3-dimethylcarbamoyl-4-{[6-methyl-2-(4-trifluoromethylphenyl)pyridine-3-carbonyl]amino}phenyl)butyryloxy)benzoic acid methyl ester] had a half-inhibitory concentration (IC50) of less than 10 nM. To `COC(=O)c1ccc(OC(=O)CCCc2ccc(NC(=O)c3ccccc3-c3ccc(C(F)(F)F)cc3)c(C(=O)N(C)C)c2)cc1C` [Compound 1-14, 4-(4-{3-dimethylcarbamoyl-4-[(4′-trifluoromethylbiphenyl-2-carbonyl)amino]phenyl}butyryloxy)-2-methyl benzoic acid methyl ester] belongs less than 10 nM; to `COC(=O)c1ccc(OC(=O)CCCc2ccc(NC(=O)c3ccccc3-c3ccc(C(F)(F)F)cc3)c(C(=O)N3CCCC3)c2)cc1` [Compound 1-15, 4-(4-{3-(pyrrolidine-1-carbonyl)-4-[(4′-trifluoromethylbiphenyl-2-carbonyl)amino]phenyl}butyryloxy)benzoic acid methyl ester], less than 10 nM; to `CCOC(=O)c1ccc(OC(=O)CCCc2ccc(NC(=O)c3ccccc3-c3ccc(C(F)(F)F)cc3)c(C(=O)N3CCCC3)c2)c(F)c1` [Compound 1-16, 3-fluoro-4-(4-{3-(pyrrolidine-1-carbonyl)-4-[(4′-trifluoromethylbiphenyl-2-carbonyl)amino]phenyl}butyryloxy)benzoic acid ethyl ester], less than 10 nM. To `COC(=O)c1ccc(OC(=O)CCCc2ccc(NC(=O)c3ccccc3-c3ccc(C(F)(F)F)cc3)c(C(=O)N(C)C)c2)cc1OC` [Compound 1-17, 4-(4-{3-dimethylcarbamoyl-4-[(4′-trifluoromethylbiphenyl-2-carbonyl)amino]phenyl}butyryloxy)-2-methoxybenzoic acid methyl ester] belongs 10 to 100 nM.

`COC(=O)c1ccc(OC(=O)CCCc2ccc(NC(=O)c3ccccc3-c3ccc(C(F)(F)F)cc3)c(C(=O)N(C)C)c2)cc1Cl` [Compound 1-18, 2-chloro-4-(4-{3-dimethylcarbamoyl-4-[(4′-trifluoromethylbiphenyl-2-carbonyl)amino]phenyl}butyryloxy)benzoic acid methyl ester] had an IC50 of less than 10 nM. On to `COC(=O)c1ccc(OC(=O)CCCc2ccc(NC(=O)c3ccccc3-c3ccc(C(F)(F)F)cn3)c(C(=O)N(C)C)c2)cc1` [Compound 1-19, 4-(4-{3-dimethylcarbamoyl-4-[2-(5-trifluoromethylpyridin-2-yl)benzoylamino]phenyl}butyryloxy)benzoic acid methyl ester], for which the IC50 was 10 to 100 nM.

The values are drawn from patent US8101774B2, “Ester derivatives and medicinal use thereof” (Japan Tobacco Inc., priority 2004, dated 2012).
